Reference: patent US7323598B2, “Preparation of xylylenediamine (XDA)” (BASF Aktiengesellschaft, priority 2003, dated 2008)

Assay: Investigations of solubility of IPN in different solvents
Format: physicochemical
Settings: for solubility of IPN in NMP: solvent NMP; for solubility of IPN in mesitylene: solvent mesitylene; for solubility of IPN in pseudocumene: solvent pseudocumene
Method: Investigations of Solubility of IPN in Different Solvents
At 60° C., the solubility of IPN in mesitylene or pseudocumene is in each case below 10% by weight.

## N#Cc1cccc(C#N)c1 [IPN, 1,3-dicyanobenzene]
60° C.
  solubility of IPN in NMP: approx. 26 % by weight
  solubility of IPN in mesitylene: below 10 % by weight
  solubility of IPN in pseudocumene: below 10 % by weight
90° C.
  solubility of IPN in NMP: approx. 41 % by weight
  solubility of IPN in mesitylene: 12 % by weight
  solubility of IPN in pseudocumene: 20 % by weight
